Assay results reported in paper PMC5285354, “Cationic Net Charge and Counter Ion Type as Antimicrobial Activity Determinant Factors of Short Lipopeptides” (Frontiers in Microbiology, 2017).
≈ marks a conversion by molar mass, not a printed value. Read-outs that look alike come from different tables or passages of the source. Where a SMILES comes first, the peptide text is derived from it. The star is where a group is joined. Decanoyl = CCCCCCCCCC(=O)*; Octanoyl = CCCCCCCC(=O)*

Key:
Format in all cases: cell-based
[1] = system: Enterococcus faecalis (ATCC 29212); settings: for MBC Enterococcus fecalis: subculture on Mueller-Hinton II Agar, 24 h 37°C
Protocol: (§1) The minimum inhibitory concentration (MIC), minimum bactericidal concentration (MBC) and minimum fungicidal concentration (MFC) were determined according to the procedure recommended by the Clinical Laboratory Standards Institute (CLSI). The following reference strains were tested: Gram-negative E. coli (ATCC 25922), K. pneumoniae (ATCC 700603), P. vulgaris (PCM 2668), P. aeruginosa (ATCC 9027), Gram-positive S. aureus (ATCC 25923), S. epidermidis (PCM 2118), B. subtilis (ATCC 6633), E. faecalis (ATCC 29212) and fungi C. albicans (ATCC 10231), C. tropicalis (PCM 2681), and A. brasiliensis (ATCC 16404). All the microorganisms were from the Polish Collection of Microorganisms (Wroclaw, Poland). MIC was determined using a microbroth dilution method with Mueller-Hinton (MH) broth for bacteria and Sabouraud Dextrose broth for fungi (Becton Dickinson, Le Pont de Claix, France). An initial inoculum of 10^5 cfu/mL was used for bacteria and 10^3 cfu/mL for fungi. Polypropylene 96-well plates (Kartell, Noviglio, Italy) were incubated for 18 h at 37°C for bacteria and for 48 h at 25°C for the tested fungi. MIC (μg/mL) was taken as the lowest concentration of the lipopeptide, at which the observable growth was inhibited. […] The experiments were performed in triplicate on three different days.

[2] = system: Candida tropicalis (PCM 2681); settings: PCM 2681, 48 h
Protocol: as §1

[3] = system: Proteus vulgaris (PCM 2668); settings: PCM 2668, TFA salt, triplicate; for MIC Proteus vulgaris: Mueller-Hinton broth, 10^5 cfu/mL, 18 h 37°C; for MBC Proteus vulgaris: subculture on Mueller-Hinton II Agar, 24 h 37°C
Protocol: as §1

[4] = system: Staphylococcus aureus (ATCC 25923); settings: ATCC 25923, TFA salt; for MBC Staphylococcus aureus: MIC wells subcultured on Mueller-Hinton II Agar, 24 h 37°C, triplicate; for MIC Staphylococcus aureus: Mueller-Hinton broth, 10^5 cfu/mL, 18 h 37°C, triplicate on three days
Protocol: as §1

[5] = system: Escherichia coli (ATCC 25922); settings: ATCC 25922, TFA salt, triplicate; for MIC Escherichia coli: Mueller-Hinton broth, 10^5 cfu/mL, 18 h 37°C; for MBC Escherichia coli: subculture on Mueller-Hinton II Agar, 24 h 37°C
Protocol: as §1

[6] = system: Klebsiella pneumoniae (ATCC 700603); settings: ATCC 700603, TFA salt, triplicate; for MIC Klebsiella pneumoniae: Mueller-Hinton broth, 10^5 cfu/mL, 18 h 37°C; for MBC Klebsiella pneumoniae: subculture on Mueller-Hinton II Agar, 24 h 37°C
Protocol: as §1

[7] = system: Candida albicans (ATCC 10231)
Protocol: as §1

[8] = system: Bacillus subtilis (ATCC 6633)
Protocol: as §1

[9] = system: Staphylococcus epidermidis (PCM 2118)
Protocol: as §1

[10] = system: Pseudomonas aeruginosa (ATCC 9027); settings: ATCC 9027, TFA salt, triplicate; for MIC Pseudomonas aeruginosa: Mueller-Hinton broth, 10^5 cfu/mL, 18 h 37°C; for MBC Pseudomonas aeruginosa: subculture on Mueller-Hinton II Agar, 24 h 37°C
Protocol: as §1

[11] = system: Aspergillus brasiliensis (ATCC 16404); settings: ATCC 16404, 48 h
Protocol: as §1

[12] = ATCC 29212, TFA salt, Mueller-Hinton broth, 10^5 cfu/mL, 18 h 37°C, triplicate
[13] = ATCC 29212, TFA salt, triplicate
[14] = ATCC 6633, TFA salt, Mueller-Hinton broth, 10^5 cfu/mL, 18 h 37°C, triplicate
[15] = ATCC 6633, TFA salt, subculture on Mueller-Hinton II Agar, 24 h 37°C, triplicate
[16] = PCM 2118, TFA salt, Mueller-Hinton broth, 10^5 cfu/mL, 18 h 37°C, triplicate
[17] = PCM 2118, TFA salt, subculture on Mueller-Hinton II Agar, 24 h 37°C, triplicate

Structure (SMILES)	MIC Enterococcus fecalis [1, 12] [µg/mL]	MIC Candida tropicalis [2] [µg/mL]	MIC Proteus vulgaris [3] [µg/mL]	MIC Staphylococcus aureus [4] [µg/mL]	MIC Escherichia coli [5] [µg/mL]	MIC Klebsiella pneumoniae [6] [µg/mL]	MIC Candida albicans ([7]; ATCC 10231, 48 h) [µg/mL]	MIC Bacillus subtillis [8, 14] [µg/mL]	MIC Pseudomonas aeruginosa [10] [µg/mL]	MIC Aspergillus brasiliensis [11] [µg/mL]	MBC Enterococcus fecalis [1, 13] [µg/mL]	MFC Candida tropicalis [2] [µg/mL]	MBC Proteus vulgaris [3] [µg/mL]	MBC Staphylococcus aureus [4] [µg/mL]	MBC Escherichia coli [5] [µg/mL]	MBC Klebsiella pneumoniae [6] [µg/mL]	MFC Candida albicans ([7]; ATCC 10231, 48 h) [µg/mL]	MBC Bacillus subtillis [8, 15] [µg/mL]	MBC Pseudomonas aeruginosa [10] [µg/mL]	MFC Aspergillus brasiliensis [11] [µg/mL]	further results
CCCCCCCC(=O)N[C@@H](CCCCN)C(=O)NCC(=O)N[C@@H](CCCCN)C(N)=O [C8-KGK-NH2] (Octanoyl-Lys-Gly-Lys-NH2)	>2000	2000 (≈ 4.38 mM)	>2000	>2000	>2000	>2000	2000 (≈ 4.38 mM)	–	>2000	2000 (≈ 4.38 mM)	>2000	2000 (≈ 4.38 mM)	>2000	>2000	>2000	>2000	2000 (≈ 4.38 mM)	–	>2000	2000 (≈ 4.38 mM)	MIC Bacillus subtillis ([8]; ATCC 6633, 18 h): 512 µg/mL (≈ 1.12 mM); MBC Bacillus subtillis ([8]; ATCC 6633, 24 h): 1000 µg/mL (≈ 2.19 mM); MIC Staphylococcus epidermidis ([9]; PCM 2118, 18 h): 256 µg/mL (≈ 0.561 mM); MBC Staphylococcus epidermidis ([9]; PCM 2118, 24 h): 1000 µg/mL (≈ 2.19 mM)
CCCCCCCC(=O)N[C@@H](CCCCN)C(=O)N[C@@H](CCCCN)C(=O)N[C@@H](CCCCN)C(=O)N[C@@H](CCCCN)C(N)=O [C8-KKKK-NH2] (Octanoyl-KKKK-NH2)	–	2000 (≈ 3.05 mM)	>2000	>2000	>1000	>2000	2000 (≈ 3.05 mM)	>2000	>2000	2000 (≈ 3.05 mM)	>2000	2000 (≈ 3.05 mM)	>2000	>2000	>1000	>2000	2000 (≈ 3.05 mM)	>2000	>2000	2000 (≈ 3.05 mM)	MIC Enterococcus fecalis ([1]; ATCC 29212, 18 h): 2000 µg/mL (≈ 3.05 mM); MIC Staphylococcus epidermidis [9, 16]: >2000 µg/mL; MBC Staphylococcus epidermidis [9, 17]: >2000 µg/mL
CCCCCCCC(=O)N[C@@H](CCCCN)C(=O)N[C@@H](CCCCN)C(N)=O [C8-KK-NH2]	>1000	1000 (≈ 2.5 mM)	>2000	>1000	>1000	>1000	1000 (≈ 2.5 mM)	>1000	>2000	1000 (≈ 2.5 mM)	>1000	1000 (≈ 2.5 mM)	>2000	>1000	>1000	>1000	1000 (≈ 2.5 mM)	>1000	>2000	1000 (≈ 2.5 mM)	MIC Staphylococcus epidermidis [9, 16]: >1000 µg/mL; MBC Staphylococcus epidermidis [9, 17]: >1000 µg/mL
CCCCCCCCCC(=O)N[C@@H](CCCCN)C(=O)N[C@@H](CCCCN)C(=O)N[C@@H](CCCCN)C(=O)N[C@@H](CCCCN)C(N)=O [C10-KKKK-NH2] (Decanoyl-KKKK-NH2)	>2000	2000 (≈ 2.92 mM)	>2000	>2000	>2000	>2000	–	–	>2000	2000 (≈ 2.92 mM)	>2000	2000 (≈ 2.92 mM)	>2000	>2000	>2000	>2000	–	–	>2000	2000 (≈ 2.92 mM)	MIC Candida albicans ([7]; ATCC 10231, TFA salt, Sabouraud Dextrose broth, 10^3 cfu/mL, 48 h 25°C, triplicate): >2000 µg/mL; MFC Candida albicans ([7]; ATCC 10231, TFA salt, subculture on Sabouraud 2% Glucose Agar, 48 h 25°C, triplicate): >2000 µg/mL; MIC Bacillus subtillis ([8]; ATCC 6633, 18 h): 128 µg/mL (≈ 0.187 mM); MBC Bacillus subtillis ([8]; ATCC 6633, 24 h): 128 µg/mL (≈ 0.187 mM); MIC Staphylococcus epidermidis ([9]; PCM 2118, 18 h): 64 µg/mL (≈ 0.0936 mM); MBC Staphylococcus epidermidis ([9]; PCM 2118, 24 h): 128 µg/mL (≈ 0.187 mM)

The next lines start with results.

MIC Enterococcus fecalis [1, 12] [µg/mL]	MIC Candida tropicalis [2] [µg/mL]	MIC Proteus vulgaris [3] [µg/mL]	MIC Staphylococcus aureus [4] [µg/mL]	MIC Escherichia coli [5] [µg/mL]	MIC Klebsiella pneumoniae [6] [µg/mL]	MIC Candida albicans ([7]; ATCC 10231, 48 h) [µg/mL]	MIC Bacillus subtillis [8, 14] [µg/mL]	MIC Pseudomonas aeruginosa [10] [µg/mL]	MIC Aspergillus brasiliensis [11] [µg/mL]	Structure (SMILES)	MBC Enterococcus fecalis [1, 13] [µg/mL]	MFC Candida tropicalis [2] [µg/mL]	MBC Proteus vulgaris [3] [µg/mL]	MBC Staphylococcus aureus [4] [µg/mL]	MBC Escherichia coli [5] [µg/mL]	MBC Klebsiella pneumoniae [6] [µg/mL]	MFC Candida albicans ([7]; ATCC 10231, 48 h) [µg/mL]	MBC Bacillus subtillis [8, 15] [µg/mL]	MBC Pseudomonas aeruginosa [10] [µg/mL]	MFC Aspergillus brasiliensis [11] [µg/mL]	further results
>2000	2000 (≈ 6.09 mM)	>2000	>2000	>2000	>2000	2000 (≈ 6.09 mM)	>2000	>2000	2000 (≈ 6.09 mM)	CCCCCCCC(=O)N[C@@H](CCCCN)C(=O)NCC(N)=O [C8-KG-NH2] (Octanoyl-Lys-Gly-NH2)	>2000	2000 (≈ 6.09 mM)	>2000	>2000	>2000	>2000	2000 (≈ 6.09 mM)	>2000	>2000	2000 (≈ 6.09 mM)	MIC Staphylococcus epidermidis [9, 16]: >2000 µg/mL; MBC Staphylococcus epidermidis [9, 17]: >2000 µg/mL
>1000	1000 (≈ 3.68 mM)	>2000	>1000	>1000	>1000	1000 (≈ 3.68 mM)	>1000	>2000	1000 (≈ 3.68 mM)	CCCCCCCC(=O)N[C@@H](CCCCN)C(N)=O [C8-K-NH2]	>1000	2000 (≈ 7.37 mM)	>2000	>1000	>1000	>1000	1000 (≈ 3.68 mM)	>1000	>2000	1000 (≈ 3.68 mM)	MIC Staphylococcus epidermidis [9, 16]: >1000 µg/mL; MBC Staphylococcus epidermidis [9, 17]: >1000 µg/mL
